In publication PMC13376213, “Systematic discovery of motif-based interactions of the auxiliary domains of USP family deubiquitinases” (Nature Communications, 2026):
Ends that are not written are not given here.

What was measured:
Assay type in all cases: binding
USP22 zf-UBP domain = target: T1, USP22 zf-UBP domain (Homo sapiens, UniProt Q9UPT9); test: FP-monitored affinity measurements, USP22 zf-UBP; conditions: USP22_zf-UBP; FP displacement by unlabelled peptide
T1 construct: USP22_zf-UBP; Q9UPT9; zf-UBP; 37; 130; 6xHis-GST (N, cleaved yes); made in house; host or cells: Escherichia coli BL21-Gold (DE3)
T1 sequence (Q9UPT9 37-130): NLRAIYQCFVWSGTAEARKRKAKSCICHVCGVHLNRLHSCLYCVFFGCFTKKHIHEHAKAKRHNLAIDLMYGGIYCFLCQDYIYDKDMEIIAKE
Description: (§1) Proteins were expressed in Escherichia coli (E.coli) BL21-Gold (DE3) bacteria. The cDNAs encoding N-terminal 6-histidine-glutathione S-transferase tagged (6xHis-GST), 6xHis-tagged or GST-tagged protein domains in pETM33, pETM11, pGEX6P1 expression vectors respectively, were obtained from Genescript or kindly provided by MRC-PPU (Suppl. Data 1) The bacteria were transformed with the plasmid and grew at 37 °C in 2YT (5 g/L NaCl, 16 g/L tryptone and 10 g/L yeast extract) supplemented with Kanamycin (30 μg/mL) until reaching an OD600 of 0.7. Protein expression was induced with 0.3 mM isopropyl β-D-1 thiogalactopyranoside (IPTG) for 18 h at 18 °C while shaking. For zinc-finger domains, 50 μM of ZnSO4 was added during expression. The bacterial cultures were pelleted for 15 minutes at 4000 x g at 4 °C and stored at −20 °C until purification. The pellets were resuspended in lysis buffer (1× phosphate-buffered saline (PBS), 0.5 % Triton-X, 5 mM MgCl2, 10 μg/mL lysozyme, cOmplete^TM EDTA-free protease inhibitor cocktail (Roche), 10 μg/mL DNAseI) and incubated for 1 h shaking at 4 °C. […] The supernatant was incubated with glutathione (GSH) Sepharose (Cytiva) or Ni2+ Sepharose (Cytiva) for 1 h at 4 °C while shaking. The beads with the bound protein were washed with 1x PBS and eluted with 10 mM reduced glutathione in 50 mM Tris pH 8.0. For fluorescence polarization experiments, the proteins were not eluted from the beads, and the 6xHis-GST tag was cleaved overnight on GSH Sepharose beads at 4 °C while shaking with PreScission Protease in cleavage buffer (50 mM Tris pH 7.5, 150 mM NaCl, 1 mM DTT). The sample containing the cleaved domain was separated from the tag and protease and buffer-exchanged to 50 mM sodium phosphate buffer pH 7.4 with 1 mM DTT using a PD-10 desalting column (Cytiva). The purity and size of the proteins were analyzed by SDS-PAGE electrophoresis.
(§2) The measurements were performed at room temperature in a non-binding black half area 96-well plate (Corning) with a total volume of 50 μL per well. Peptides were obtained from GeneCust (France) with >95% purity. FITC-labeled peptides (N-terminally FITC-labeled without spacer and C-terminally amidated) were dissolved in dimethyl sulfoxide (DMSO), and unlabeled peptides (N-terminally acetylated and C-terminally amidated) were dissolved in 50 mM phosphate buffer pH 7.4. Saturation measurements were performed using a serial dilution of the protein domains in phosphate buffer (25 μL) and the addition of 10 nM FITC-labeled peptide (in phosphate buffer supplemented with 2 mM DTT) (25 μL). […] All measurements were performed in three technical replicates. The data were analyzed using GraphPad Prism version 9.2.0 for MacOS (GraphPad Software, San Diego, California USA, www.graphpad.com). The saturation curves were fitted to the quadratic equation, and the displacement curves were fitted to a sigmoidal dose-response equation as described previously.

USP11 DUSP-UBL domain = target: T2, USP11 DUSP-UBL domain (Homo sapiens, UniProt P51784); test: FP-based affinity measurements, USP11 DUSP-UBL; conditions: competitive FP; technical triplicates; read-out: KD, USP11 DUSP-UBL, unlabeled peptide (competitive binding)
T2 construct: USP11_UBL; P51784; UBL; 6xHis-GST (N, cleaved yes); made in house; host or cells: Escherichia coli BL21-Gold (DE3)
Description: as §1
as §2, with “The saturation curves were fitted to the quadratic equation, and the displacement curves were fitted to a sigmoidal dose-response equation as described previously.” left out

USP33 zf-UBP domain = target: T3, USP33 zf-UBP domain (Homo sapiens, UniProt Q8TEY7); test: FP-monitored affinity measurements, USP33 zf-UBP; conditions: for Kd: USP33_UBP, FP displacement by unlabelled peptide, read-out: KD
T3 construct: USP33_UBP; Q8TEY7; zf-UBP; 36; 130; 6xHis-GST (N, cleaved yes); made in house; host or cells: Escherichia coli BL21-Gold (DE3)
T3 sequence (Q8TEY7 with tags, fused parts or gaps): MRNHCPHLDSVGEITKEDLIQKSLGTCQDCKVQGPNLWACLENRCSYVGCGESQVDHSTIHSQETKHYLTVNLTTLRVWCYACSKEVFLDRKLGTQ
Description: (§3) The measurements were performed at room temperature in a non-binding black half area 96-well plate (Corning) with a total volume of 50 μL per well. […] All measurements were performed in three technical replicates. […] The saturation curves were fitted to the quadratic equation, and the displacement curves were fitted to a sigmoidal dose-response equation as described previously[68].

USP20 zf-UBP domain = target: T4, USP20 zf-UBP domain (Homo sapiens, UniProt Q9Y2K6); test: FP-monitored affinity measurements, USP20 zf-UBP; conditions: for Kd: USP20_UBP, FP displacement by unlabelled peptide, read-out: KD
T4 construct: USP20_UBP; Q9Y2K6; zf-UBP; 99; 6xHis-GST (N, cleaved yes); made in house; host or cells: Escherichia coli BL21-Gold (DE3)
Description: as §3

[1] = FP-monitored affinity measurement (Supplementary Fig. 4D)

T4 sequence (Q9Y2K6 4-99): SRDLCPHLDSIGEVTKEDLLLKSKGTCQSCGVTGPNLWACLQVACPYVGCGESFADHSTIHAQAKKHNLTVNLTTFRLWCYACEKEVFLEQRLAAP
T2 sequence (P51784 67-288): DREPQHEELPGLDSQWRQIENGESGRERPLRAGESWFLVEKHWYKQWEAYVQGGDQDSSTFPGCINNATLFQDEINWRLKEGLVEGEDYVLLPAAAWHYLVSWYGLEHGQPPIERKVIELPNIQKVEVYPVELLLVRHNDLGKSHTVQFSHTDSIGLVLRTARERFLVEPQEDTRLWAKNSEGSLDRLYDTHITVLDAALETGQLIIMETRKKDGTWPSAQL

Substance	Kd (USP22 zf-UBP domain) [µM]	Kd (USP20 zf-UBP domain) [µM]	further results
Ac-VPSLDDFAGQSWSSWVERADLP-NH2 [ATXN7L2_18-39]	2.91		
Ac-VPSPEAFLGKPWSSWID-NH2 [ATXN7L1_36-52]	11		
Ac-VPSPEAFLGKPWSSWIDAAKLH-NH2 [ATXN7L1_36-57]	0.1		
SAVTYPDWIGQSYSEV [ORAI1_48-63]			Kd (USP11 DUSP-UBL domain): > 200 µM
YPFQPGRMALESQSPG [USP19]		~162	Kd (USP33 zf-UBP domain): 40.6 µM
YTNSSGKMALNSPQPG [IRAG1]		9.02	Kd (USP33 zf-UBP domain): 7.86 µM
ubiquitin C-terminus: ubiquitin C-terminal peptide (YLRLRGG) [reference compound]		> 50	binding of the ubiquitin C-terminus to USP33 zf-UBP (USP33 zf-UBP domain; [1]): do not bind the ubiquitin C-terminus with measurable affinity; binding of the ubiquitin C-terminus to USP20 zf-UBP (USP20 zf-UBP domain; [1]): do not bind the ubiquitin C-terminus with measurable affinity
